Laboratory results: patent US12398120B2, “Substituted hydantoinamides as ADAMTS7 antagonists” (BAYER AKTIENGESELLSCHAFT, priority 2019, dated 2025)

Target: ADAMTS4 (Homo sapiens (Human), UniProt O75173)
Test: Selectivity assay for ADAMTS-7 modulators: ADAMTS4 (FRET substrate)
Type: biochemical
Conditions: ADAMTS4 (R&D 4307-AD) 50 nM, substrate Dabcyl-EEVKAKVQPY-Glu(Edans)-NH2 1 μM, 120 min, 32° C.
In short: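 Activity read as rising fluorescence after a FRET substrate is cleaved by human ADAMTS4, with reactions started by substrate addition to wells holding compound or DMSO. Percent inhibition plotted against concentration gave IC50.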

Sequence of ADAMTS4 (O75173 213-685): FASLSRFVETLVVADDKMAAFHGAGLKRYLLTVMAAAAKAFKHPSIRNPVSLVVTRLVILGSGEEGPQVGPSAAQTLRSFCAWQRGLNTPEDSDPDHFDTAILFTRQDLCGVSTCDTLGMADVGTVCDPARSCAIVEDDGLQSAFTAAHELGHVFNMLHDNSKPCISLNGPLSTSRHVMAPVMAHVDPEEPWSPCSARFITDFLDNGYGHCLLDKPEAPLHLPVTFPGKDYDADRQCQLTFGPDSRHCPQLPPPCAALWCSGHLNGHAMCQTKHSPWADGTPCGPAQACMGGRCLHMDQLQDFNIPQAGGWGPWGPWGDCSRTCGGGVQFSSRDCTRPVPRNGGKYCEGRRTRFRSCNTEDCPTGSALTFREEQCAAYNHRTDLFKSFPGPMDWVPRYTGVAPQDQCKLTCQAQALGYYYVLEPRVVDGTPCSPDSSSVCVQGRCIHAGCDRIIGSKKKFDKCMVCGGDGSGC

| IC50 [µM] | Compound |
| --- | --- |
| 7.6 | O=C1NC(=O)[C@](CNC(=O)c2ccc(C(F)(F)F)cc2-c2ccc(Cl)cc2)(C2CC2)N1 [Example 89, 4′-Chloro-N-{[(4R)-4-Cyclopropyl-2,5-Dioxoimidazolidin-4-Yl]Methyl}-5-(Trifluoromethyl)[1,1′-Biphenyl]-2-Carboxamide] |
| 50 | O=C1NC(=O)[C@](CNC(=O)c2cccnc2-c2ccc(Cl)cc2)(C2CC2)N1 [Example 90, 2-(4-Chlorophenyl)-N-{[(4R)-4-Cyclopropyl-2,5-Dioxoimidazolidin-4-Yl]Methyl}Pyridine-3-Carboxamide] |
| 30 | Cc1nsnc1C1(CNC(=O)c2ccccc2-c2ccc(C(F)(F)F)nc2)NC(=O)NC1=O (stereo not drawn) [Example 91, Ent-N-{[4-(4-Methyl-1,2,5-Thiadiazol-3-Yl)-2,5-Dioxoimidazolidin-4-Yl]Methyl}-2-[6-(Trifluoromethyl)Pyridin-3-Yl]Benzamide] |
| 19 | O=C1NC(=O)[C@](CNC(=O)c2ccc(OC(F)(F)F)cc2-c2ccc(C(F)(F)F)cc2)(C2CC2)N1 [Example 92, N-{[(4R)-4-Cyclopropyl-2,5-Dioxoimidazolidin-4-Yl]Methyl}-5-(Trifluoromethoxy)-4′-(Trifluoromethyl)[1,1′-Biphenyl]-2-Carboxamide] |
| 3.4 | O=C1NC(=O)[C@](CNC(=O)c2ccc(Cl)c(F)c2-c2ccc(C(F)(F)F)cc2)(C2CC2)N1 [Example 93, 5-Chloro-N-{[(4R)-4-Cyclopropyl-2,5-Dioxoimidazolidin-4-Yl]Methyl}-6-Fluoro-4′-(Trifluoromethyl)[1,1′-Biphenyl]-2-Carboxamide] |
| 46 | CC1(CNC(=O)c2ccccc2-c2ccc(C(F)(F)F)cc2)NC(=O)NC1=O (stereo not drawn) [Example 96, Ent-N-[(4-Methyl-2,5-Dioxoimidazolidin-4-Yl)Methyl]-4′-(Trifluoromethyl)[Biphenyl]-2-Carboxamide] |
| 4.5 | Cc1ccc(-c2cc(C(F)(F)F)ccc2C(=O)NC[C@@]2(C3CC3)NC(=O)NC2=O)cc1 [Example 99, N-{[(4R)-4-Cyclopropyl-2,5-Dioxoimidazolidin-4-Yl]Methyl}-4′-Methyl-5-(Trifluoromethyl)[Biphenyl]-2-Carboxamide] |
| 3.2 | Cc1ccc(-c2c(C)cccc2C(=O)NC[C@@]2(C3CC3)NC(=O)NC2=O)cc1 [Example 101, N-{[(4R)-4-Cyclopropyl-2,5-Dioxoimidazolidin-4-Yl]Methyl}-4′,6-Dimethyl[Biphenyl]-2-Carboxamide] |
| 6.6 | CCC(F)(F)c1ccc(-c2ccccc2C(=O)NC[C@@]2(C3CC3)NC(=O)NC2=O)cc1 [Example 102, N-{[(4R)-4-Cyclopropyl-2,5-Dioxoimidazolidin-4-Yl]Methyl}-4′-(1,1-Difluoropropyl)[Biphenyl]-2-Carboxamide] |
| 7.1 | COc1ccc(C(=O)NC[C@@]2(C3CC3)NC(=O)NC2=O)c(-c2ccc(C3CC3)cc2)c1 [Example 103, 4′-Cyclopropyl-N-{[(4R)-4-Cyclopropyl-2,5-Dioxoimidazolidin-4-Yl]Methyl}-5-Methoxy[Biphenyl]-2-Carboxamide] |
| 8.7 | O=C1NC(=O)[C@](CNC(=O)c2ccc(F)cc2-c2ccc(C3CC3)cc2)(C2CC2)N1 [Example 104, 4′-Cyclopropyl-N-{[(4R)-4-Cyclopropyl-2,5-Dioxoimidazolidin-4-Yl]Methyl}-5-Fluoro[Biphenyl]-2-Carboxamide] |
| 4.9 | O=C1NC(=O)[C@](CNC(=O)c2ccccc2-c2ccc(C3CC3)cc2)(C2CC2)N1 [Example 105, 4′-Cyclopropyl-N-{[(4R)-4-Cyclopropyl-2,5-Dioxoimidazolidin-4-Yl]Methyl}[Biphenyl]-2-Carboxamide] |
| 5.4 | CCc1ccc(-c2ccccc2C(=O)NC[C@@]2(C3CC3)NC(=O)NC2=O)cc1 [Example 106, N-{[(4R)-4-Cyclopropyl-2,5-Dioxoimidazolidin-4-Yl]Methyl}-4′-Ethyl[Biphenyl]-2-Carboxamide] |
